A value given as a limit tells only on which side of the number the result lay.

For the first test, the target named is T1, full length AKT E17K (Homo sapiens, UniProt P31749, E17K).
T1 construct: host or cells: HEK-293 (ATCC CRL-1573)
T1 sequence (P31749 whole entry E17K): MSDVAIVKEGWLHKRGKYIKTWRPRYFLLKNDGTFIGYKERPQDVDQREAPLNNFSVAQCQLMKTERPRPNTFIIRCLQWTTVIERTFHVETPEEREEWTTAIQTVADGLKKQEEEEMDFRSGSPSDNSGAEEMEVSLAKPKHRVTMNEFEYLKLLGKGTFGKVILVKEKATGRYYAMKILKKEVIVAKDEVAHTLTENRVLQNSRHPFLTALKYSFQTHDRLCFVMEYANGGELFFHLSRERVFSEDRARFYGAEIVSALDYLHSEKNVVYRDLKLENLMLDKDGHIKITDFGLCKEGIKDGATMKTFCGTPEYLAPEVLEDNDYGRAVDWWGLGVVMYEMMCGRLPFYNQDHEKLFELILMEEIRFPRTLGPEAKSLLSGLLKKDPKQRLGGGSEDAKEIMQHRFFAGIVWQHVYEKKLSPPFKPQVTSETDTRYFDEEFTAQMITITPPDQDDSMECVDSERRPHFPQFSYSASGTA
In words: NanoBRET Target Engagement (TE) Assay. To be noted: competitive displacement of tracer in cells, read-out: AKT1 E17K IC50. The class given is cell-based. The method, boiled down: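 Compound and tracer incubated 2 h before luminescence at donor 450 nm and acceptor 600 nm, with extracellular signal inhibited. EC50 by sigmoidal variable-slope regression.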
(In general: In BRET a luciferase serves as donor, and the signal depends on an acceptor being close.)
Usually IC50 stands for the point on the concentration scale where inhibition reaches its midpoint. With `N#Cc1ccnc(N2CCN(Cc3ccc(-n4c(-c5cccnc5N)nc5ccc(-c6ccc(Cl)cc6)nc54)cc3)CC2)n1` [Example 343, 2-(4-(4-(2-(2-Aminopyridin-3-yl)-5-(4-chlorophenyl)-3H-imidazo[4,5-b]pyridin-3-yl)benzyl)piperazin-1-yl)pyrimidine-4-carbonitrile], the half-maximal inhibitory concentration (IC50) was in the range of 60 to 600 nM.

Consider `[2H]c1nc(OC([2H])([2H])[2H])ccc1-c1ccc2nc(-c3cccnc3N)n(-c3ccc(CN4CCC(Nc5ccnc(C#N)n5)CC4)cc3)c2n1` [Example 597, 4-((1-(4-(2-(2-aminopyridin-3-yl)-5-(6-(methoxy-d3)pyridin-3-yl-2-d)-3H-imidazo[4,5-b]pyridin-3-yl)benzyl)piperidin-4-yl)amino)pyrimidine-2-carbonitrile], for which the IC50 was less than 15 nM.

Turning to `N#Cc1nccc(NC2CCN(Cc3ccc(-n4c(-c5cccnc5N)nc5nccnc54)cc3)CC2)n1` [Example 413, 4-((1-(4-(2-(2-aminopyridin-3-yl)-1H-imidazo[4,5-b]pyrazin-1-yl)benzyl)piperidin-4-yl)amino)pyrimidine-2-carbonitrile], the 50% inhibitory concentration (IC50) was in the range of 15 to 60 nM.

With `N#Cc1ncnc(N2CCN(Cc3ccc(-n4c(-c5cccnc5N)nc5ccc(-c6ccc(Cl)cc6)nc54)cc3)CC2)n1` [Example 369, 4-(4-(4-(2-(2-Aminopyridin-3-yl)-5-(4-chlorophenyl)-3H-imidazo[4,5-b]pyridin-3-yl)benzyl)piperazin-1-yl)-1,3,5-triazine-2-carbonitrile], the 50% inhibitory concentration (IC50) lay within 15 to 60 nM.

Take `CNC(=O)c1ccc2nc(-c3cccnc3N)n(-c3ccc(CN4CCC(Nc5ccnc(C#N)n5)CC4)cc3)c2n1` [Example 398, 2-(2-Aminopyridin-3-yl)-3-(4-((4-((2-cyanopyrimidin-4-yl)amino)piperidin-1-yl)methyl)phenyl)-N-methyl-3H-imidazo[4,5-h]pyridine-5-carboxamide]: the IC50 is less than 15 nM.

The test is the same for the next values; noted with them: competitive tracer displacement in living cells, read-out: AKT1 E17K IC50.
As to `N#Cc1nccc(N2C[C@H]3C[C@@H]2CN3Cc2ccc(-n3c(-c4cccnc4N)nc4ccc(-c5ccccc5)nc43)cc2)n1` [Example 216, 4-((1R,4R)-5-(4-(2-(2-Aminopyridin-3-yl)-5-phenyl-3H-imidazo[4,5-b]pyridin-3-yl)benzyl)-2,5-diazabicyclo[2.2.1]heptan-2-yl)pyrimidine-2-carbonitrile], the IC50 was less than 15 nM.

Turning to `N#Cc1ncc(C(=O)NCc2ccc(-n3c(-c4cccnc4N)nc4cccnc43)cc2)cn1` [Example 119, N-(4-(2-(2-Aminopyridin-3-yl)-3H-imidazo[4,5-b]pyridin-3-yl)benzyl)-2-cyanopyrimidine-5-carboxamide], the 50% inhibitory concentration (IC50) is 600 to 10000 nM.

On to `N#Cc1nc2cc(F)cc(C(=O)NC3CCN(Cc4ccc(-n5c(-c6cccnc6N)nc6ccc(-c7ccccc7)nc65)cc4)CC3)c2s1` [Example 182, N-(1-(4-(2-(2-aminopyridin-3-yl)-5-phenyl-3H-imidazo[4,5-b]pyridin-3-yl)benzyl)piperidin-4-yl)-2-cyano-5-fluorobenzo[d]thiazole-7-carboxamide], for which the half-inhibitory concentration (IC50) is 60 to 600 nM.

`N#Cc1nccc(C(=O)N2CCN(Cc3ccc(-n4c(-c5cccnc5N)nc5ccc(-c6ccccc6)nc54)cc3)CC2)n1` [Example 141, 4-(4-(4-(2-(2-Aminopyridin-3-yl)-5-phenyl-3H-imidazo[4,5-b]pyridin-3-yl)benzyl)piperazine-1-carbonyl)pyrimidine-2-carbonitrile]: the IC50 was less than 15 nM.

Turning to `N#Cc1ccnc(N2CCN(Cc3ccc(-n4c(-c5cccnc5N)nc5ccc(-c6cccc(Cl)c6)nc54)cc3)CC2)n1` [Example 297, 2-(4-(4-(2-(2-Aminopyridin-3-yl)-5-(3-chlorophenyl)-3H-imidazo[4,5-b]pyridin-3-yl)benzyl)piperazin-1-yl)pyrimidine-4-carbonitrile], the IC50 is 60 to 600 nM.

Regarding `N#Cc1ccnc(N2C[C@H]3C[C@@H]2CN3Cc2ccc(-n3c(-c4cccnc4N)nc4ccc(-c5ccccc5)nc43)cc2)n1` [Example 217, 2-((1R,4R)-5-(4-(2-(2-Aminopyridin-3-yl)-5-phenyl-3H-imidazo[4,5-b]pyridin-3-yl)benzyl)-2,5-diazabicyclo[2.2.1]heptan-2-yl)pyrimidine-4-carbonitrile], the IC50 was in the range of 15 to 60 nM.

(Values after patent US12209087B2, “AKT1 modulators” (Alterome Therapeutics, Inc., priority 2022, dated 2025).)
